In series [1] the target is T1, CDK2/cyclin A (Homo sapiens, UniProt P24941). Kind of series: CDK2/cyclin A enzyme assay. It counts as biochemical. The following applies: Tables 1 and 2.
The target in series [2] is CDK2 (Homo sapiens, UniProt P24941). Kind of series: DiscoverX kinase binding assay for Kd. The following applies: for better binding affinity for CDK2 compared to screening hit 3: relative to 3.
The target in series [3] is T1, CDK2/cyclin A. Kind of series: Reaction Biology 33P-ATP filter-binding kinase assay, CDK2/cyclin A. It counts as biochemical.
Series [4] relates to MCF-7 cell line. The series is described as follows: Antiproliferation assay. It counts as cell-based. The following applies: 72 h, alamarBlue, highest concentration tested.
The test system of series [5] is MDCK cell line. Kind of series: MDCK cell permeability assay. Format: in vitro ADME. The following applies: 1 μM, 2 h; for Papp (A-B) (10^−6, cm/s): apical to basolateral; for Papp (B-A) (10^−6, cm/s): basolateral to apical.
Series [6] relates to HSP90. The series is described as follows: Test against HSP90. The following applies: data not shown.
Series [7] relates to CDK complexes. Kind of series: Reaction Biology single-dose kinase profiling of CDK complexes. It counts as biochemical. The following applies: all tested CDK complexes.
Series [8] deals with CDK2/cyclin E (Homo sapiens, UniProt P24941). The series is described as follows: Reaction Biology 33P-ATP filter-binding kinase assay, CDK2/cyclin E. Format: biochemical.

Bounds are passed on as bounds.

In the case of `Cc1nn(-c2ncccc2C(F)(F)F)c2c1C(=O)CC(C)(C)C2Br` (stereo not shown) [Compound 46, 7-Bromo-3,6,6-trimethyl-1-(3-(trifluoromethyl)pyridin-2-yl)-6,7-dihydro-1H-indazol-4(5H)-one], in series [1], the “CDK2/cyclin A inhibitory activity, in words” value is recorded as “low activities”.

On to `Cc1nn(-c2ncccc2C(F)(F)F)c2c1C(=O)C(Br)C(C)(C)C2` (stereo not shown) [Compound 47, 5-Bromo-3,6,6-trimethyl-1-(3-(trifluoromethyl)pyridin-2-yl)-6,7-dihydro-1H-indazol-4(5H)-one], for which the “CDK2/cyclin A inhibitory activity, in words” value in series [1] is on record as “low activities”.

As for `Cc1nn(-c2ccccn2)c2c1C(=O)CC(c1ccccc1)C2Br` (stereo not shown) [Compound 18d, 7-Bromo-3-methyl-6-phenyl-1-(pyridin-2-yl)-6,7-dihydro-1H-indazol-4(5H)-one], the “CDK2/cyclin A inhibitory activity, in words” value in series [1] is “inactive”.

As for `Cc1nn(-c2ccccn2)c2c1C(=O)NCC(C)(C)C2` [Compound 20, 3,7,7-Trimethyl-1-(pyridin-2-yl)-5,6,7,8-tetrahydropyrazolo[4,3-c]azepin-4(1H)-one], the “CDK2/cyclin A inhibitory activity, in words” value in series [1] is “inactive”.

With `Cc1nn(-c2ccncn2)c2c1C(=O)CC(C)(C)C2Br` (stereo not shown) [Compound 59, 7-Bromo-3,6,6-trimethyl-1-(pyrimidin-4-yl)-6,7-dihydro-1H-indazol-4(5H)-one], in series [2], the “better binding affinity for CDK2 compared to screening hit 3” value came to 3 fold. In series [3], this compound returned an IC50 of 120 nM. Besides, the “antiproliferative activities against MCF-7 cell line, none up to” value (from here on “antiproliferative activities”) in series [4] is > 200 µM.

`Cc1nn(-c2ccccn2)c2c1C(=O)CC(C)(C)C2Br` (stereo not shown) [Compound 3, 7-Bromo-3,6,6-trimethyl-1-(pyridin-2-yl)-6,7-dihydro-1H-indazol-4(5H)-one]: in series [5], the “Papp (A-B) (10^−6, cm/s)” value is listed as 20.1 10^−6, cm/s and the “Papp (B-A) (10^−6, cm/s)” value is on record as 9.52 10^−6, cm/s. Besides, binding in series [2] was put at a Kd of 15000 nM. Also, in series [3], the IC50 turned out to be 86 nM. The “activity against HSP90” value in series [6] is listed as “did not exhibit any activity”. In series [4], the “antiproliferative activities” value is > 200 µM.

With `Cc1nn(-c2ccccn2)c2c1/C(=N/O)CC(C)(C)C2Br` (stereo not shown) [Compound 23, 7-Bromo-3,6,6-trimethyl-1-(pyridin-2-yl)-6,7-dihydro-1H-indazol-4(5H)-one Oxime], the “CDK2/cyclin A inhibitory activity, in words” value in series [1] is “weak inhibitory activity”.

Consider `Cc1nn(-c2ccccn2)c2c1C(=O)CC(C)C2Br` (stereo not drawn) [Compound 18b-cis, 7-Bromo-3,6-dimethyl-1-(pyridin-2-yl)-6,7-dihydro-1H-indazol-4(5H)-one], for which the “Inhibition of CDK complexes at 1 μM, in words” value in series [7] was “did not exhibit significant inhibitory activity”.

As to `Cc1nn(-c2ccccn2)c2c1NC(=O)CC(C)(C)C2` [Compound 19, 3,7,7-Trimethyl-1-(pyridin-2-yl)-4,6,7,8-tetrahydropyrazolo[4,3-b]azepin-5(1H)-one], the “CDK2/cyclin A inhibitory activity, in words” value in series [1] was “inactive”.

For `Cc1nn(-c2nccs2)c2c1C(=O)CC(C)(C)C2Br` (stereo not shown) [Compound 53, 7-Bromo-3,6,6-trimethyl-1-(thiazol-2-yl)-6,7-dihydro-1H-indazol-4(5H)-one], the “better binding affinity for CDK2 compared to screening hit 3” value in series [2] is reported as 3 fold. Also, the values for the IC50 in series [8] and in series [3] were 2 nM and 61.9 nM, respectively. The “antiproliferative activities” value in series [4] is > 200 µM.

Turning to `Cc1nn(-c2ccccn2)c2c1C(=O)NCC(C)(C)C2Br` (stereo not shown) [Compound 21, 8-Bromo-3,7,7-trimethyl-1-(pyridin-2-yl)-5,6,7,8-tetrahydropyrazolo[4,3-c]azepin-4(1H)-one], the “CDK2/cyclin A inhibitory activity, in words” value in series [1] is given as “moderately active”.

In the case of `Cc1cccnc1-n1nc(C)c2c1CC(C)(C)C(Br)C2=O` (stereo not shown) [Compound 40, 5-Bromo-3,6,6-trimethyl-1-(3-methylpyridin-2-yl)-6,7-dihydro-1H-indazol-4(5H)-one], the “CDK2/cyclin A inhibitory activity, in words” value in series [1] is “low activities”.

Regarding `Cc1nn(-c2ccccn2)c2c1C(O)CC(C)(C)C2Br` (stereo not shown) [Compound 22, 7-Bromo-3,6,6-trimethyl-1-(pyridin-2-yl)-4,5,6,7-tetrahydro-1H-indazol-4-ol], the “CDK2/cyclin A inhibitory activity, in words” value in series [1] is listed as “weak inhibitory activity”.

Regarding `COCCc1ccc(OCC(O)CNC(C)C)cc1` (stereo not shown) [Metoprolol, metoprolol, reference compound], in series [5], the “Papp (A-B) (10^−6, cm/s)” value is on record as 26.9 10^−6, cm/s and the “Papp (B-A) (10^−6, cm/s)” value is reported as 21.2 10^−6, cm/s.

The term IC50 denotes the concentration at which inhibition is half-maximal. A low value points to greater potency. One may read the Kd as the free concentration of one partner at which half of the binding sites on the other are occupied at equilibrium, for simple one-to-one binding.

For the origin of these results see paper PMC7954990 (European journal of medicinal chemistry, 2021).
